The subject of this experiment is Fusarium graminearum in wheat. It counts as in vivo.
The mark [1] stands for this setting: Trial 1, dosage mL/Ha: benzovindiflupyr 200, phenamacril 1500, combination 200 + 1500.
The mark [2] stands for this setting: Trial 2, dosage mL/Ha: benzovindiflupyr 200, phenamacril 1500, combination 200 + 1500.
Where [3] appears, read: Trial 3, dosage mL/Ha: benzovindiflupyr 200, phenamacril 1500, combination 150 + 1250.
Where [4] appears, read: Trial 4, dosage mL/Ha: benzovindiflupyr 200, phenamacril 1500, combination 150 + 1250.

Like-named read-outs stand apart in the source and are kept apart here.

Regarding `Cn1cc(C(=O)Nc2cccc3c2[C@@H]2CC[C@H]3C2=C(Cl)Cl)c(C(F)F)n1` (racemic) [Benzovindiflupyr, N-[(1RS,4SR)-9-(dichloromethylene)-1,2,3,4-tetrahydro-1,4-methanonaphthalen-5-yl]-3-(difluoromethyl)-1-methylpyrazole-4-carboxamide], the “% disease control of Fusarium graminearum in wheat at 3DAA, Actual” value (from here on “% disease control … at 3DAA, Actual”) under setting [1] was found to be 27% and the “% disease control … at 3DAA, Actual” value under setting [3] was 27%. For the same compound, the “% disease control of Fusarium graminearum in wheat at 7DAA, Actual” value is, setting by setting: under setting [2], 27%; under setting [4], 27%.
For `CCOC(=O)C(C#N)=C(N)c1ccccc1` [Phenamacril, ethyl (2EZ)-3-amino-2-cyano-3-phenylacrylate], the “% disease control … at 3DAA, Actual” value under setting [1] turned out to be 83.5% and the “% disease control … at 3DAA, Actual” value under setting [3] was found to be 83.5%. For the same compound, the “% disease control of Fusarium graminearum in wheat at 7DAA, Actual” value is, setting by setting: under setting [2], 83.5%; under setting [4], 83.5%.

These data come from patent publication US20210137119A1 (priority 2017, published 2021).
